{
  "source": "patent US10207003B2",
  "about": "“Liquid pentablock co-polymer formulations for sustained delivery of therapeutics” (i-novion, Inc., priority 2016, dated 2019)",
  "key": {"[1]": {"assay": "Visual clarity of PTSsol formulations on storage", "assay_type": "physicochemical", "conditions": "for Time formulation remained visibly clear without drug precipitating out: stored refrigerated, exemplary PTSsol, 1% and 2.5% brinzolamide, 1% cyclosporine A, 0.07% and 0.1% difluprednate; for Time formulation remained clear and stable: PTSsol, stored at room temperature or refrigerated at 4° C., 1% cyclosporine, up to 2.5% brinzolamide", "protocol": "(§1) Hydrophobic active agents that are difficult to formulate in aqueous compositions are typically formulated as emulsions or suspensions. […] Similarly, PTSsol for 0.5% celecoxib was prepared in 10% PTS121GH in PBS buffer at pH 7.4. […] Referring to FIGS. 2 and 3 the stability of 2.5% brinzolamide in 25% 1-0 GH polymer dispersion in PBS at pH 7.4 was analyzed over 8 weeks, using HPLC.\nIn this example, an artificial tear composition using PTSsol polymers was generated. PTS solutions are clear, bioadhesive, biocompatible, and biodegradable polymers ideal for sensitive medical applications, such as preparing artificial tears for relieving eye discomfort caused by dry eye. […] Additional excipients can be added to the formulation as desired."}, "[2]": {"assay": "Dissolving hydrophobic active agents in PTSsol as clear aqueous liquids", "assay_type": "physicochemical", "protocol": "as §1"}},
  "data": [
    {"smiles": "CCCC(=O)O[C@]1(C(=O)COC(C)=O)CC[C@H]2[C@@H]3C[C@H](F)C4=CC(=O)C=C[C@]4(C)[C@@]3(F)[C@@H](O)C[C@@]21C", "note": "[difluprednate]", "values": [
      {"measurement": "Time formulation remained visibly clear without drug precipitating out", "setting": "[1]", "value": 8, "unit": "days"},
      {"measurement": "Dissolution in hydrophilic polymer", "setting": "[2]; directly in PTS121 GH polymer", "value": "does not readily dissolve"},
      {"measurement": "Drug concentration of stable aqueous formulation", "setting": "[2]; first dissolved in gelling polymer 113 GH or 122 GH, then mixed with PTS121 GH", "value": "≤ 0.1", "unit": "%"}
    ]},
    {"smiles": "CCN[C@H]1CN(CCCOC)S(=O)(=O)c2sc(S(N)(=O)=O)cc21", "note": "[brinzolamide]", "values": [
      {"measurement": "Time formulation remained clear and stable", "setting": "[1]", "value": 8, "unit": "weeks"},
      {"measurement": "Time formulation remained clear and stable", "setting": "[1]; listed as BRZ", "value": "≥ 8", "unit": "weeks"},
      {"measurement": "Time formulation remained visibly clear without drug precipitating out", "setting": "[1]", "value": 28, "unit": "days"},
      {"measurement": "Drug concentration dissolved as clear liquid", "setting": "[2]; in 10% PTS1-0GH PTSsol", "value": "up to 2.5%"},
      {"measurement": "Drug concentration dissolved as very clear liquid", "setting": "[2]; in 10% of 121GH polymer", "value": 2.5, "unit": "%"}
    ]}
  ]
}
